Reference: patent US20020019378A1, “COMPOUNDS” (priority 1997, published 2002)
pEC50: −log10 of the molar value. Where two headings read alike, the source gives them in different places.

Experiments:
[1] = biological target: T1, Human Glucocorticoid Receptor (Homo sapiens, UniProt P04150); assay: Functional in vitro glucocorticoid activity assay: Hela cells stably transfected with sPAP reporter gene under MMTV LTR promoter; format: cell-based; settings: 72 hours incubation, values given as 'less than (about)', read-out: EC50 (sPAP transcription, glucocorticoid activity)
T1 construct: endogenous in cells; host or cells: HeLa cells stably transfected with an MMTV-LTR sPAP reporter
T1 sequence (P04150 1-777): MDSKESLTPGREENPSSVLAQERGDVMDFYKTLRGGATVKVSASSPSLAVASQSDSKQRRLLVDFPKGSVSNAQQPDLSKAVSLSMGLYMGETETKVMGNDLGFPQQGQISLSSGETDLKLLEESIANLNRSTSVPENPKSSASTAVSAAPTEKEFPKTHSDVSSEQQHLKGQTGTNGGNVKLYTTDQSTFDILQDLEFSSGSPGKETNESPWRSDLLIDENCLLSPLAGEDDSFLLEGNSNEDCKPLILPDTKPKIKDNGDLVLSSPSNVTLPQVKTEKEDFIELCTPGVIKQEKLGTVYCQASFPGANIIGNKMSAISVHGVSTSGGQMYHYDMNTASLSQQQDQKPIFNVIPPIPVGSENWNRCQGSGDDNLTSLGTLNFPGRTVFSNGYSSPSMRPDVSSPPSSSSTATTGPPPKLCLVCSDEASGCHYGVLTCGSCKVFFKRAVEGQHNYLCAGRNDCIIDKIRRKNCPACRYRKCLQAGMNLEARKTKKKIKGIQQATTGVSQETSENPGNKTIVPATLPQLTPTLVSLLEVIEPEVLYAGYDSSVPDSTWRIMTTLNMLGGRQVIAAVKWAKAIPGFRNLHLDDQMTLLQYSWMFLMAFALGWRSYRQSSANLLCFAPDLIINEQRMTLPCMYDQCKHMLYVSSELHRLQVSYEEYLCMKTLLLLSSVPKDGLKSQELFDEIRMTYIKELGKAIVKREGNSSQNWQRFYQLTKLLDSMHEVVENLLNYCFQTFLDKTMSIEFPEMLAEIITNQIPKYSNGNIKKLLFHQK
Excerpt: The functional assay used was a modification of the method described by T. S Berger et al, of J. of Steroid Biochem. Molec. Biol. 1992, 41 (3-8), 733-738, “Interaction of Glucocorticoid analogues with the Human Glucocorticoid Receptor”. Thus, Hela cells were stably transfected with a detectable reporter gene (secreted placental alkaline phosphatase, sPAP) under the control of a glucocorticoid response promoter (the LTR of the mouse mammary tumour virus, MMTV). Various concentrations of standard (dexamethasone) or compounds of the invention were incubated with transfected Hela cells for 72 hours. At the end of the incubation, substrate ([…]) for sPAP was added and the product measured by a spectrophotometric method. Increased absorbance reflected increased sPAP transcription and concentration-response lines were constructed such that EC50-values could be estimated.

human serum paraoxonase = human serum paraoxonase (Homo sapiens, UniProt P27169); assay: Hydrolysis by human serum paraoxonase (enzymatic hydrolysis test method); format: in vitro ADME; settings: 5% bovine serum albumin, 20 mM CaCl2, 37° C.
Chain of human serum paraoxonase (P27169 whole entry): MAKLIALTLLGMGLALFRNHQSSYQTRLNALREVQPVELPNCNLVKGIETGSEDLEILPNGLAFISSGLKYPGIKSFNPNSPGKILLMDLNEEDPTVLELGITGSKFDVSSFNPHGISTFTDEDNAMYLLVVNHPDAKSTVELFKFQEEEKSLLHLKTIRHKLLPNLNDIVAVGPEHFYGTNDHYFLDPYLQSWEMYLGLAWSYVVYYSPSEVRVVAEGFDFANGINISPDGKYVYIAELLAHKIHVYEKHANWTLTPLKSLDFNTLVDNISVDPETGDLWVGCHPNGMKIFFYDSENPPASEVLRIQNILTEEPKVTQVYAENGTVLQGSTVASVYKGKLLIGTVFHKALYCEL
Protocol: The compounds herein have relatively short half-lives in blood in vitro. A test method for determining the half-life of the compounds under defined enzymatic hydrolysis conditions in vitro is now described. The test method is believed to provide a suitable indicator as to effects in vivo. In the test method, the hydrolysis of test compounds by a lactonase enzyme is monitored using RP HPLC with UV detection.
The ‘enzymatic hydrolysis test method’ is as follows: Incubations are carried out in 1 ml volumes in an aqueous medium containing 5% bovine serum albumin in the presence of 20 mM CaCl2. The solutions are preincubated at 37° C. for 5 minutes before the addition of the test compound (5 μl of a 5 mg/ml solution in DMSO) and then lactonase enzyme (10 μl to the 1 ml incubations). Control incubations containing no enzyme are also included. The enzymatic hydrolysis is monitored by removal of aliquots and quenching the reaction by the addition of an equal volume of acetonitrile. The samples are vortex mixed, then centrifuged and the supernatants are transferred to autosampler vials for HPLC analysis.
In a suitable HPLC procedure, aliquots (20 μl) of the supernatants are injected onto a Zorbax Rx C8 column (250×4.6mm; Hichrom). The column is maintained at 40° C. and eluted at a flow rate of 1.0 mL/min with a mobile phase of acetonitrile: 50 mM ammonium formate (65:35) adjusted to pH 4.2 with formic acid. Detection is by UV absorbance at 240 nm, and chromatographic peak areas for both parent and metabolite are measured.
In a preferred aspect, the half-life of each compound may be determined by a method in which peak areas are plotted against time on a log-linear scale, and the half lives determined by extrapolation or interpolation of a straight line joining two points.
The above described ‘enzymatic hydrolysis test method’ employs lactonase enzyme. Suitable forms of lactonase enzyme include human serum paraoxonase or a recombinant form thereof, or purified lactonase, obtained from human plasma as described hereinafter. Purification of human serum paraoxonase is described by C E Furlong et al, Chem.Biol.Interactions, Vol 87, p35-48, (1993) and recombinant human serum paraoxonase is described in International Patent application No. WO 96/01322
The susceptibility to hydrolysis by human serum paraoxonase of certain of the compounds of the Examples was assessed using the test protocol of the ‘enzymatic hydrolysis test method’ described herein.

[2] = tested on: lactonase enzyme purified from human plasma; format: biochemical; settings: for Restoration of lactonase activity in the presence of EDTA and EGTA: salt added at 100 mM
Protocol: The enzyme activity purified according to A. above was tested with classical inhibitors in order to establish to which enzyme family it belongs. Also, it was investigated whether a divalent cation was required as a co-factor, as disclosed in W. N. Fishbein et al, Journal of Biological Chemistry 1966, 241(21), 4835-4841.

[3] = Stability in human plasma test method; format: in vitro ADME; settings: 37° C.
Protocol: The stability of various of the compounds of the Examples in human plasma was tested using the following ‘stability in human plasma’ test method: 500 μl aliquots of human plasma in screw capped polypropylene tubes were preincubated at 37° C. in a waterbath for 5 minutes. The plasma samples were then spiked with 5 μl of test compound (nominally 5 mg/ml in DMSO). Aliquots (100 μl ) were removed immediately and after 5 minutes and mixed with an equal volume of acetonitrile. The samples were centrifuged and the supernatants were transferred to autosampler vials for HPLC and half-life analysis.
In the HPLC procedure, aliquots (20 μl) of all the supernatants were injected onto a Zorbax Rx C8 column (250×4.6mm; Hichrom). The column was maintained at 40° C. and eluted at a flow rate of 1.0 mL/min with a mobile phase of acetonitrile: 50 mM ammonium formate (65:35) adjusted to pH 4.2 with formic acid. Detection was by UV absorbance at 240 nm, and chromatographic peak areas for both parent and metabolite were measured
To determine the half-life, for each compound peak areas were plotted against time on a log-linear scale, and the half lives determined by extrapolation or interpolation of a straight line joining two points.

[4] = Stability in human lung S9; format: in vitro ADME; settings: human lung S9 diluted 1:1 with phosphate buffer pH 7.4, NADPH, 37° C.
Protocol: The stability of the compound of Examples 4 and 6 in a model human lung environment was assessed using the following test protocol: Incubations were carried out, at 37° C., in 500 μL volumes of human lung S9 diluted 1:1 with 10 mM phosphate buffer pH 7.4 to which was added 50 μl of 30 mg/ml (Aq) NADPH. The reactions were started by the addition of 5 μl of test compound (nominally 5 mg/ml solution in DMSO). Aliquots (100 μl) were removed immediately and after 1 hour and mixed with an equal volume of acetonitrile to stop the reaction. Samples were centrifuged and the supernatants were transferred to autosampler vials for HPLC analysis and half-life analysis using methods identical to those described in the ‘stability in human plasma’ test protocol described above. Control incubations containing no lung S9 were also included.

## CCC(=O)O[C@]1(C(=O)SCC2CCOC2=O)[C@H](C)C[C@H]2[C@@H]3C[C@H](F)C4=CC(=O)C=C[C@]4(C)[C@@]3(F)[C@@H](O)C[C@@]21C (single isomer, unassigned) [Example 2, 6α,9α-Difluoro-11β-hydroxy-16α-methyl-3-oxo-17α-propionyloxy-androsta-1,4-diene-17β-carbothioic acid S-(2-oxo-tetrahydro-furan-3-ylmethyl) ester]
[1]
  pEC50: > 6.60

## CCC(=O)OC1(C(=O)SC2COC(=O)O2)C(C)CC2C3CC(F)C4=CC(=O)C=CC4(C)C3(F)C(O)CC21C (single isomer, unassigned) [Example 7 isomer A, 6α,9α-Difluoro-11β-hydroxy-16α-methyl-3-oxo-17α-propionyloxy-androsta-1,4-diene-17β-carbothioic acid S-(2-oxo-1,3-dioxolan-4-yl) ester]
Human serum paraoxonase
  Hydrolysis by human serum paraoxonase: hydrolysed
[1]
  pEC50: > 6.30

## CCC(=O)OC1(C(=O)OC2COC(=O)O2)C(C)CC2C3CC(F)C4=CC(=O)C=CC4(C)C3(F)C(O)CC21C (single isomer, unassigned; isomer a) [Example 9 isomer A, 6α,9α-Difluoro-11β-hydroxy-16α-methyl-3-oxo-17α-propionyloxy-androsta-1,4-diene-17β-carboxylic acid O-(2-oxo-1,3-dioxolan-4-yl) ester]
Human serum paraoxonase
  Hydrolysis by human serum paraoxonase: hydrolysed

## [Ca+2].[Cl-].[Cl-] [CaCl2]
[2]
  Restoration of lactonase activity in the presence of EDTA and EGTA: fully restored

## O=C(O)CN(CCN(CC(=O)O)CC(=O)O)CC(=O)O [EDTA]
[2]
  Inhibition of lactonase activity: totally inhibited

## O=C(O)CN(CCOCCOCCN(CC(=O)O)CC(=O)O)CC(=O)O [EGTA]
[2]; inhibitor at 1 mM
  Inhibition of lactonase activity: totally inhibited

## C[C@@H]1C[C@H]2[C@@H]3C[C@H](F)C4=CC(=O)C=C[C@]4(C)[C@@]3(F)[C@@H](O)C[C@]2(C)[C@]12OC(=O)SC2=O [Example 1, 6α,9α-Difluoro-11β-hydroxy-16α-methyl-17-spiro[androsta-1,4-diene-17,5′-[1,3]oxathiolane]-2′,3,4′-trione]
[1]
  pEC50: > 6.60

## CSC(=O)[C@@]1(OC(=O)CSC2COC(=O)C2)[C@H](C)C[C@H]2[C@@H]3C[C@H](F)C4=CC(=O)C=C[C@]4(C)[C@@]3(F)[C@@H](O)C[C@@]21C (stereo partly drawn) [Example 3, 6α,9α-Difluoro-11β-hydroxy-16α-methyl-3-oxo-17α-(2-oxo-tetrahydro-furan-4-ylsulfanyl-acetoxy)-androsta-1,4-diene-17β-carbothioic acid methyl ester]
[3]
  half-life at 49.5 µg/mL: < 10 min
Human serum paraoxonase
  Hydrolysis by human serum paraoxonase: hydrolysed
[1]
  pEC50: > 6.60

## C[C@]12C=CC(=O)C=C1CC[C@H]1[C@@H]3C[C@H]4CC(=O)O[C@@]4(C(=O)CO)[C@@]3(C)C[C@H](O)[C@@]12F [Example 5, 9α-Fluoro-11β,17α,21-trihydroxy-3,20-dioxo-pregna-1,4-diene-16α-acetic acid γ-lactone]
[1]
  pEC50: > 6.60

## Nc1c(Cl)cc(C(O)CNCCCSC2CCOC2=O)cc1Cl.O=C(O)C(F)(F)F (stereo not shown) [Example 6, 3-[3-[2-(4-Amino-3,5-dichlorophenyl)-2-hydroxyethylamino]propylsulfanyl]-dihydro-furan-2-one trifluoroacetate]
[3]
  half-life at 49.5 µg/mL: < 10 min
[4]
  half-life at 45 µg/mL: > 60 min

## CCC(=O)O[C@]1(C(=O)SCc2oc(=O)oc2C)[C@H](C)C[C@H]2[C@@H]3C[C@H](F)C4=CC(=O)C=C[C@]4(C)[C@@]3(F)[C@@H](O)C[C@@]21C [Example 10, 6α,9α-Difluoro-11β-hydroxy-16α-methyl-3-oxo-17α-propionyloxy-androsta-1,4-diene-17β-carbothioic acid S-(5-methyl-2-oxo-1,3-dioxol-4-ylmethyl) ester]
[3]
  half-life at 49.5 µg/mL: < 10 min
[1]
  pEC50: > 6.30

## CCC(=O)OC1(C(=O)OCc2oc(=O)oc2C)C(C)CC2C3CC(F)C4=CC(=O)C=CC4(C)C3(F)C(O)CC21C (stereo not drawn) [Example 12, 6α,9α-Difluoro-11β-hydroxy-16α-methyl-3-oxo-17α-propionyloxy-androsta-1,4-diene-17β-carboxylic acid O-(5-methyl-2-oxo-1,3-dioxol-4-ylmethyl) ester]
Human serum paraoxonase
  Hydrolysis by human serum paraoxonase: hydrolysed

## [Cl-].[Cl-].[Mg+2] [MgCl2]
[2]
  Restoration of lactonase activity in the presence of EDTA and EGTA: not restored

## CNC(=O)Oc1ccc2c(c1)[C@]1(C)CCN(C)[C@@H]1N2C [eserine]
[2]; inhibitor at 50 mM
  Inhibition of lactonase activity: not inhibited

## O=C(O)c1cc[c]([Hg][Cl])cc1 [p-chloromercuribenzoate (PCMB), p-chloromercuribenzoate]
[2]; inhibitor at 1 mM
  Inhibition of lactonase activity: slightly inhibited

## O=S(=O)(F)Cc1ccccc1 [phenylmethylsulphonyl fluoride (PMSF), phenylmethylsulphonyl fluoride]
[2]; inhibitor at 10 mM
  Inhibition of lactonase activity: not inhibited

## O=S(=O)([O-])[O-].[Zn+2] [zinc sulphate]
[2]; inhibitor at 1 mM
  Inhibition of lactonase activity: totally inhibited
